Each block holds one molecule with its values, some of them ahead of it.
What was measured:
SOD = SOD (Bos taurus, UniProt P00442); assay: SOD activating function; type: biochemical; settings: read-out: SOD activating function (SOD activation rate)
Description: (§1) Next, a measurement was made of the SOD activating function.
Method of measurement of SOD activating function
Test Comp. 0.1 0.1 -- --
Preincubate 25° C., 10 min.
UVB radiation, 6.0 mw/cm^2, 5 min. (1.8 J/cm^2)
(1) System for observing whether the consumption of superoxides by SOD is
further increased with the test composition.
(§2) (3) System for inhibiting XOD reaction with SOD. XOD reaction was 20%
(4) System for a complete, uninhibited XOD reaction.
The SOD activation rates of the test compositions were calculated using the equation listed as Equation 1 below, and the results shown in Table 3 were obtained. [formula]

[1] = Preventing effect on photo-oxidation of methionine by hydroxyl radical; type: biochemical; settings: 1 mM thiotaurine, 1 mM methionine, riboflavin, NADH, Fe (II) EDTA, UVA 370 nm
Description: In a quartz cell was placed 1 mM of methionine, riboflavin, NADH and Fe (II) EDTA, and super high pressure mercury lamp rays (UVA 370 nm) were irradiated thereto, thus presenting a control. Next, 1 mM of thiotaurine was added to the same system mentioned above and the reaction was initiated by light irradiation as before, while the two reactions were sequentially followed by HPLC and finally compared.
These systems, to which the Fe (II) chelate compound and electron donor, NADH, were added in the presence of riboflavin, produced the HO.

[2] = Lipid peroxide production inhibitory effect; type: biochemical
Description: Fifty ml of a solution prepared by combining a solution of 12.5 mg of methyl linoleate, 2.5 mg of Rf and 2-70 mg of thiotaurine in ethanol with a wing buffer solution, and the resulting solution was subjected to light irradiation as in Experiment 2. After a determined period of time a sample was recovered, and the lipid peroxides were measured using the Yagi method.

[3] = Long-term administration to rats, 180 days; type: in vivo; settings: 200 mg/kg every day
Description: The active ingredient compound according to the present invention, an aminothiosulfonic acid, not only functions as a light shield and as a production inhibitor or scavenger of lipid peroxides and active oxygen, but since it and its decomposition products are structurally similar to compounds which are naturally present in the body including taurine, etc. (C.R. Acad. Sci., Ser. 3, 302 (13) 503-8: Presence of Large Quantities of Thiotaurine and Hypotaurine in the Tissues of Riftia pachyptila), its toxicity is extremely low making it a safe substance.

[4] = Effect on alloxan diabetes; type: in vivo, Wistar Imamichi rats; settings: 500 mg/kg oral once a day, 2 weeks
Description: Thiotaurine was orally administered in an amount of 500 mg/kg once a day to Wistar Imamichi rats, for a period of 2 weeks. Three days prior to the last administration of the medicine feeding of the rats was stopped for 16 hours, and alloxan dissolved in chilled physiological saline was intravenously injected at an amount of 75 mg/kg. One hour after the last administration of the medicine, the rats were killed, their blood was obtained, and a measurement was made of the triglycerides and blood sugar in the blood, using the enzyme method.

[5] = Primary skin irritation test; type: in vivo; settings: rabbits
Description: (§3) In addition, the result was determined to be negative in both a primary skin irritation test and an eye irritation test using rabbits.

[6] = design: species or system rabbits; settings: rabbit, in vivo
Description: as §3

[7] = H2 O2 scavenging function; type: biochemical
Description: In a quartz cell were placed 1 mM of thiotaurine and […] of H2 O2, and the change in thiotaurine was measured by HPLC while irradiating with light.

[8] = Reactivity with ^1 O2 in riboflavin, rose bengal and methylene blue/h.nu.-systems with DABCO; type: biochemical; settings: DABCO as quencher
Description: Therefore, the 3 systems listed below were used in identical experiments.
1. Riboflavin/h.nu.-system, 1,4-diazabicyclooctane (DABCO) as ^1 O2 quencher
2. Rose bengal/h.nu.-system DABCO as ^1 O2 quencher
3. Methylene blue/h.nu.-system DABCO as ^1 O2 eliminator

[9] = SOD-mimic functions of thiotaurine (xanthine-xanthine oxidase-NBT method); type: biochemical
Description: Experimental method: Measurement of the SOD-mimic functions was done, with slight modifications, according to the Xanthine-xanthine oxidase-nitrobluetetrazolium (NBT) method described in Lipid Peroxide Experiments (edited by N. Kaneda, N. Ueda, Ishiyaku Press, p. 144). The measurement is based on measuring at 560 nm the amount of formazan produced by the reduction of NBT with a superoxide which results from the oxidation of xanthine with xanthine oxidase, and calculating the activation thereof. The modification involved irradiation with UVB ([…], 1.8 J/cm^2, 313 nm) for 5 minutes while simultaneously adding the xanthine oxidase, in order to interrupt the reaction.

bacteria = type: cell-based; settings: coexistence or non-coexistence with S9Mix
in vivo = settings: rat, SD male and female rats, oral
[10] = Effect on hydrocortisone induced chick embryo cataract; type: in vivo, White leghorn chick embryos; settings: HC 0.12 mg/egg
Description: White leghorn chick embryos were incubated in an incubator at a temperature of 37° C. and a humidity of approximately 70%. Then a solution of 0.12 mg of hydrocortisone succinate (HC) in 0.2 ml of purified water was administered through the air chambers of the eggs of the control group and the test group on the 15th day of incubation. Thiotaurine was then given to the test group 2 hours, or 2 and 5 hours, after HC administration.
The lenses were removed 8 hours after HC administration, and the presence of cataracts was judged according to the criteria listed in Table 8, using the method of Nishikuni, et. al. (Investigative Opthamology and Visual Science, 25, p. 1051, 1984).
I. Lens was clear and indistinguishable from control.
IV: Pinhole-sized clear area in an opaque nucleus.

[11] = Reactivity with singlet oxygen, riboflavin (Rf)/h.nu.-system; type: biochemical; settings: for thiotaurine reacted with ^1 O2 (decomposition): absence of NaN3, pH 7.8
Description: Fourteen milligrams of thiotaurine and 1.5 mg of riboflavin (Rf) were dissolved in 50 ml of a wing buffer solution (pH 7.8), after which light irradiation (FL20SBRF Toshiba, UVA 0.1 mW/cm^2, UVB 0.1 mW/cm^2, visible light 0.4 mW/cm^2) was initiated in the presence and in the absence of 34 mg of sodium azide (NaN3). After continuously reacting the product from the reactant solution with dansyl chloride, a fluorescent reagent, high-performance liquid chromatography was used for separation and analysis.
The conditions for the high-performance liquid chromatography were as listed below.
Mobile phase: 0.1M phosphate buffer solution: THF ([…]): acetonitrile=670:40:350
The results obtained are shown in FIG. 1 as percentages (%) for the proportions of thiotaurine, hypotaurine and taurine at each hour shown.
It is assumed that in the Rf/h.nu.-system ^1 O2 is produced according to the formula listed below as Chemical formula 7.

[12] = Influence of externally applied thiotaurine on UVB rays (erythema, SPF); type: in vivo, male Hartley guinea pigs
Description: Thiotaurine was added to a base cream of the composition indicated in Table 5, at concentrations of 5.0% (w/w) and 7.5% (w/w), respectively.
Experimental method: In this experiment, male Hartley guinea pigs of body weight 230-250 g were used. The back, abdomen and side hair of the guinea pigs was first roughly removed with hair clippers, after which the hair was completely removed with care using a Brown electric shaver. On the morning of the next day, the hair was again removed, the body weights measured, and the groups divided. The UVB radiation was applied in 10 stages of 0.075, 0.1, 0.15, 0.2, 0.3, 0.4, 0.5, 0.6, 0.7, and 0.8. Five minutes prior to irradiation, the base cream was applied to the control area, and the thiotaurine-containing cream preparations were applied to the test area. Then observations were made 2, 4, 6, 8, and 24 hours later to determine the presence of erythema, visually.
1; Difficult to determine presence or absence of erythema
2; Erythema clearly present but edges unclear
3; Erythema clearly present and edges clear

tyrosinase [13] = assay: Tyrosine oxidation preventing effect (tyrosine oxide polymer production); type: biochemical; settings: Ultraviolet rays
Description: In a quartz cell was put 1 ml of L-tyrosine (30 mg/100 ml), 1 ml of a tris buffer solution and 0.9 ml of a test solution (6.25×1/10^2 mol/l-1 mol/l), and the mixture was allowed to stand under radiation from an ultraviolet lamp at 37° C. for 10 minutes. Following this, 0.1 ml of tyrosinase (2000 units/ml) were added thereto, and further irradiated under an ultraviolet lamp at 37° C. for 30 minutes, after which the production of tyrosine oxide polymers was measured at 475 nm.

tyrosinase [14] = assay: as above; type: biochemical; settings: Indoors
[15] = alloxan; cited from earlier work
XOD = assay: Inhibition of XOD reaction by SOD (system (3) of SOD activating method); type: biochemical; settings: SOD 0.1 ml
Description: as §1, §2

[16] = applied externally to the skin; cited from earlier work
[17] = alloxan 75 mg/kg i.v., P < 0.05 vs control group

SOD, sequence (P00442 whole entry): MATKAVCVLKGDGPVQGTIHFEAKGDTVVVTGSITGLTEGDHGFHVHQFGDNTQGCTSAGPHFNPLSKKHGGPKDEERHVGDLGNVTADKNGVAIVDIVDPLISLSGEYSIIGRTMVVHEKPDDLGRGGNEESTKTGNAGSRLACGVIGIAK

Molecule: NCCS(=O)(O)=S [thiotaurine, Aminoethyl thiosulfonate]
activation at 10000 µM (SOD; 10^-2 M/reaction solution): 65.8%
activation at 1000 µM (SOD; 10^-3 M/reaction solution): 32.1%
activation at 100 µM (SOD; 10^-4 M/reaction solution): 29.6%
activation at 10 µM (SOD; 10^-5 M/reaction solution): 14.3%
activation at 1 µM (SOD; 10^-6 M/reaction solution): 1.6%
inhibition of methionine oxidation with HO. [1]: inhibits the methionine oxidation with HO., and has a scavenging effect against hydroxy radicals
prevention of production of lipid peroxides ([2]; 2.8×1/10^4 M, after 7.5 hours, 280 µM): approximately 50%
prevention of production of lipid peroxides ([2]; 4×1/10^3 M, 4000 µM): ~100%
change in the body weight curve [3]: no change in the body weight curve
deaths [3]: no deaths at all
increase of glucose suppressed to, compared with control [4]: 65%
increase of triglycerides suppressed to, compared with control [4]: 70%
Blood sugar [4, 17]: 769.1 ± 120.3 mg/dL
Triglyceride [4, 17]: 363.8 ± 38.2 mg/dL
Blood sugar relative to control group (100) ([4]; control = 100): 65
Triglyceride relative to control group (100) ([4]; control = 100): 70
primary skin irritation [5]: negative
eye irritation [6]: negative
oxidation of thiotaurine to taurine and hypotaurine with H2 O2, time ([7]; light irradiation, 1 mM thiotaurine): about 3 hours
reaction with H2 O2 ([7]; no light irradiation): did not react at all
reaction with ^1 O2 [8]: reacts with ^1 O2 in all three systems
Superoxide production inhibition rate ([9]; 10^-2 M/reaction solution): 34.4%
Superoxide production inhibition rate ([9]; 10^-3 M/reaction solution): 34.7%
Superoxide production inhibition rate ([9]; 10^-4 M/reaction solution): 43.2%
Superoxide production inhibition rate ([9]; 10^-5 M/reaction solution): 35.7%
Superoxide production inhibition rate ([9]; 10^-6 M/reaction solution): 47.0%
Superoxide production inhibition rate ([9]; 10^-7 M/reaction solution): 34.7%
mutagenicity (Ames Test) (bacteria): no mutagenecity was observed
LD50 (in vivo): > 2000 mg/kg
Determination: lenses of grade II (faint opaque ring) ([10]; 0.5 mg × 1 time/egg): 6/8
Determination: lenses of grade III (distinct opaque ring) ([10]; 0.5 mg × 1 time/egg): 2/8
Determination: lenses of grade I (clear) ([10]; 1.0 mg × 1 time/egg): 2/8
Determination: lenses of grade II (faint opaque ring) ([10]; 1.0 mg × 1 time/egg): 2/8
Determination: lenses of grade III (distinct opaque ring) ([10]; 1.0 mg × 1 time/egg): 4/8
Determination: lenses of grade I (clear) ([10]; 1.0 mg × 2 times/egg): 4/8
Determination: lenses of grade II (faint opaque ring) ([10]; 1.0 mg × 2 times/egg): 4/8
Determination: lenses of grade I (clear) ([10]; 2.0 mg × 2 times/egg): 4/8
Determination: lenses of grade II (faint opaque ring) ([10]; 2.0 mg × 2 times/egg): 4/8
thiotaurine reacted with ^1 O2 (decomposition) ([11]; 2 hours): 40%
thiotaurine reacted with ^1 O2 (decomposition) ([11]; 6 hours): 90%
thiotaurine remaining ([11]; 6 hours, presence of NaN3 (^1 O2 quencher), pH 7.8): approximately 85%
SPF value ([12]; 5% (w/w) cream, 2 hr post-irradiation): 3.6
SPF value ([12]; 5% (w/w) cream, 4 hr post-irradiation): 3.6
SPF value ([12]; 5% (w/w) cream, 6 hr post-irradiation): 3.8
SPF value ([12]; 5% (w/w) cream, 8 hr post-irradiation): 4.1
SPF value ([12]; 5% (w/w) cream, 24 hr post-irradiation): 5.0
SPF value ([12]; 7.5% (w/w) cream, 2 hr post-irradiation): 4.4
SPF value ([12]; 7.5% (w/w) cream, 4 hr post-irradiation): 4.3
SPF value ([12]; 7.5% (w/w) cream, 6 hr post-irradiation): 4.3
SPF value ([12]; 7.5% (w/w) cream, 8 hr post-irradiation): 4.3
SPF value ([12]; 7.5% (w/w) cream, 24 hr post-irradiation): 5.7

Inhibition rate (tyrosine oxidation) (tyrosinase [13]; 1 mol/l): 96.6%
Inhibition rate (tyrosine oxidation) (tyrosinase [13]; 1.25 × 10^-1 mol/l): 88.2%
Inhibition rate (tyrosine oxidation) (tyrosinase [13]; 2.5 × 10^-1 mol/l): 92.8%
Inhibition rate (tyrosine oxidation) (tyrosinase [13]; 5 × 10^-1 mol/l): 92.4%
Inhibition rate (tyrosine oxidation) (tyrosinase [13]; 6.25 × 10^-2 mol/l): 78.0%
Inhibition rate (tyrosine oxidation) (tyrosinase [14]; 1 mol/l): 91.5%
Inhibition rate (tyrosine oxidation) (tyrosinase [14]; 1.25 × 10^-1 mol/l): 36.8%
Inhibition rate (tyrosine oxidation) (tyrosinase [14]; 2.5 × 10^-1 mol/l): 61.7%
Inhibition rate (tyrosine oxidation) (tyrosinase [14]; 5 × 10^-1 mol/l): 87.7%
Inhibition rate (tyrosine oxidation) (tyrosinase [14]; 6.25 × 10^-2 mol/l): 12.8%
Molecule: N=C(N)NCCS(=O)(O)=S [thiotaurocyamine]

Molecule: catalase
symptoms of diabetes [15]: suppressed

Molecule: superoxide dismutase [SOD]
XOD reaction inhibited by SOD (XOD): 20%
symptoms of diabetes [15]: suppressed
amount of lipid peroxides in the epidermis due to UV rays [16]: lowering the amount of lipid peroxides (LPO) in the epidermis due to UV rays

From US5601806A, “Methods for scavenging active oxygen compounds and preventing damage from ultra violet B rays using taurine analogues” (Sogo Pharmaceutical Company Limited, priority 1991, dated 1997)
